Test system: ADNF III mRNA
Test: northern blot of ADNF III mRNA in brain of ApoE-deficient mice
Format: in vivo
Details: 28-day-old ApoE-deficient mice, daily injections for the first two weeks of life
Method: FIG. 9 illustrates northern blot identification of ADNF III mRNA. RNA was extracted from the brains of 28-day-old apolipoprotein E-deficient mice (E) treated with saline for the first two weeks of life or with NAP (E+N), control mice (C) were treated with saline. RNA was subjected to northern blot hybridization with a PCR-labeled ADNF III specific probe (α-^32P-dCTP, Amersham, 3000 Ci/mmol) (see FIG. 2) in comparison to an actin-specific probe (Gozes et al., Mol. Brain Res. 2:137-148 (1987)).
b. Hybridization: The blots were prehybridized for two hours at 55° C. and were hybridized with a specific complementary DNA probe for the mouse ADNF III cDNA (a PCR product obtained using the following primers: 61-79 and the complementary strand from position 438-455, which are described in detail below). The labeled probe was prepared by random priming and incubated with the blot for 16 hours at 55° C. Prehybridization and hybridization solutions (12 ml/blot) contained the following: 50% formamide (deionized using mixed bed resin, Sigma), 50 mM sodium phosphate buffer (pH 6.5), 0.8 M NaCl, 1 mM EDTA, 5× Denhart's reagent (0.05% BSA, 0.05% polyvinylpyrrolidone and 0.05% Ficoll), 0.1% SDS and […] poly(A). The labeled probe was dissolved in 12 ml of hybridization solution and added to the prehybridization mixture. […]

In the case of Asn-Ala-Pro-Val-Ser-Ile-Pro-Gln [NAP], the “ADNP mRNA content” value is reported as “did not change”.
